# How the values were obtained:
# Phosphodiesterase 4 = Phosphodiesterase 4 (Homo sapiens, UniProt P27815+Q08499+Q07343+Q08493); test: Inhibition of human PDE4 expressed in Saccharomyces cerevisiae preincubated for 30 mins followed by cAMP substrate addition
# Homo sapiens [1] = test: Inhibition of late allergic response in atopic asthmatic patient assessed as reduction in minimum FEV1 level at 87.5 ug administered once daily via inhalation for 7 days followed by allergen challenge relative to placebo; type: functional; conditions: dose 87.5 µg; time 7 day
# Homo sapiens [2] = test: Inhibition of late allergic response in atopic asthmatic patient assessed as reduction in weighted mean FEV1 level at 87.5 ug administered once daily via inhalation for 7 days followed by allergen challenge relative to placebo; type: functional; conditions: dose 87.5 µg; time 7 day
# Homo sapiens [3] = test: Inhibition of early allergic response in atopic asthmatic patient assessed as reduction in minimum FEV1 level at 87.5 ug administered once daily via inhalation for 7 days followed by allergen challenge relative to placebo; type: functional; conditions: dose 87.5 µg; time 7 day
# Homo sapiens [4] = test: Inhibition of early allergic response in atopic asthmatic patient assessed as reduction in weighted mean FEV1 level at 87.5 ug administered once daily via inhalation for 7 days followed by allergen challenge relative to placebo; type: functional; conditions: dose 87.5 µg; time 7 day
smiles,measurement,setting,value
COc1cccc(Nc2c(C(N)=O)cnc3c(C)cc(S(=O)(=O)c4cccc(C(=O)N(C)C)c4)cc23)c1 [GSK-256066],IC50,Phosphodiesterase 4,3.2 pM
same,inhibition (INH),Homo sapiens [1],26.2%
same,inhibition (INH),Homo sapiens [2],34.3%
same,inhibition (INH),Homo sapiens [3],40.9%
same,inhibition (INH),Homo sapiens [4],57.2%

# — ChEMBL document CHEMBL4725222, “Advances in the Development of Phosphodiesterase-4 Inhibitors” (J Med Chem, 2020)
